The text below walks through data of patent US10221255B2, “Composition for the immediate stopping of a free-radical polymerization” (BASF SE, priority 2015, dated 2019).

Data set [1] is described as follows: Heating test in acrylic acid: inhibition period at 120° C. under air. As to conditions: PTZ 20 ppm in acrylic acid, average of three.
Description: In this example, heating tests in acrylic acid (AA) were carried out. In this test, a sample of acrylic acid is maintained at 120° C. under an air atmosphere and the time until occurrence of turbidity in the solution is determined. The time is considered to be the inhibition period (IP) of the acrylic acid sample.
A part 1 was taken from the pure acrylic acid distillate RD and a stock solution 1 comprising 1000 ppm by weight of phenothiazine (PTZ) was produced with stirring.
40 parts by weight of stock solution 1 were mixed with 960 parts by weight of the pure acrylic acid distillate RD so as to give the stock solution 3. Part of this stock solution 3 was divided into identical samples having volumes of 1 ml.
Samples taken from the stock solutions 2 were combined with the various 1 ml samples obtained from the stock solutions 3 in such a way that the desired compositions of acrylic acid, phenothiazine (PTZ), ionic liquids IL, solvents LM or mixtures IL/LM of ionic liquids IL with solvents LM were obtained by doping. The doped samples produced in this way were provided for further examination on the same day. For repeat measurements, fresh doped samples were produced in order to minimize the influence of the acrylic acid oligomers obtained by Michael oligomerization.
To examine the polymerization tendency of the respective doped sample, three HPLC vials (transparent vessels having a fill volume of 1.5 ml) were in each case charged with 0.5 ml of the respective sample under air and subsequently tightly closed by means of a crimped cap. Immediately after production, in each case up to 92 vials charged as described were hung in a holder made for this purpose and kept at a temperature of 120° C. in a convection drying oven while the holder rotated at six revolutions per minute in order to ensure complete mixing in the vials (the liquid content of the respective vial came into contact with the crimped cap six times per minute). The time T to complete polymerization of the respective sample in the associated vial was then measured. For this purpose, the samples in the vials in the drying oven were monitored by means of a digital video camera and the video film was subsequently evaluated visually.
Three associated values of T were determined in this way for each doped sample and these were arithmetically averaged.
When mixtures of ionic liquid and solvent were used as additive, the weight ratio of ionic liquid to solvent or to the solvent mixture (IL/LM) was 20/80.
A short description of data set [2]: Hansen solubility parameters and solubility distance Ra of solvents. It counts as physicochemical. The arrangement: key: solubility distance Ra in MPa^1/2. The settings on record: solubility distance calculated from formula 1. An excerpt:
The value will hereinafter also be referred to as solubility distance Ra. The definition and calculation of the solubility parameters in the three-dimensional Hansen solubility space are described in: C. M. Hansen: “The three dimensional solubility parameters” J. Paint Technol. […] In this Hansen space, δD denotes the LONDON dispersion forces, δP denotes the Debye interaction forces between permanent dipoles and also the Keesom interaction forces between induced and permanent dipoles and δH denotes the specific interaction forces (hydrogen bonds, acid/base, donor/acceptor, etc.). The unit of the parts of the parameters is in each case [MPa^1/2].
The Hansen solubility parameters for many solvents are tabulated in standard works such as Hansen Solubility Parameters: A User's Handbook, C. […] It is also possible to use known modeling software, for example HSPIP 3.1.14 (3rd Edition), developed and marketed by C. M. Hansen, in order to calculate the Hansen solubility parameters on the basis of the chemical structure of the solvent.

The conditions of data set [3]: Hansen solubility parameter, room temperature, about 23° C., cited from earlier work; for δD: LONDON dispersion forces; for δP: dipole interaction forces; for δH: specific interaction forces (hydrogen bonds etc.).
For data set [4] the following is noted: relative static permittivity, liquid pure substance; cited from earlier work.
Data set [5] is described as follows: Solubility of phenothiazine in ionic liquid/solvent mixtures relative to pure solvent. The settings on record: 20% by weight ionic liquid, 80% by weight solvent; room temperature; FIGS. 1 to 4. How it is done:
In the same way, the solubility of phenothiazine in the pure solvent was determined.

A short description of data set [6]: Phase diagram of the system phenothiazine/proglyme/EMIM acetate. It counts as physicochemical. As to conditions: room temperature, FIG. 5. The method, then: The phase diagram (triangular diagram) of the system phenothiazine/proglyme/EMIM acetate was determined at room temperature. In the triangular diagram, the corners correspond to the pure materials. The sides of the triangle correspond to two-component mixtures. The proportions of phenothiazine/proglyme/EMIM acetate at any point P are given by the intersections of the parallels to the side through P with the other sides. The phase behavior (single-phase, two phases liquid/liquid, two phases solid/liquid, three-phase) at selected points is indicated by symbols.

The nature of data set [7]: Phase diagram of the system phenothiazine/proglyme/EMIM ethylsulfate. It counts as physicochemical. As to conditions: room temperature, FIG. 6. The method, then:
The phase diagram (triangular diagram) of the system phenothiazine/proglyme/EMIM ethylsulfate was determined at room temperature. In the triangular diagram, the corners correspond to the pure materials. The sides of the triangle correspond to two-component mixtures. The proportions of phenothiazine/proglyme/EMIM ethylsulfate at any point P are given by the intersections of the parallels to the sides through P with the other sides. The phase behavior (single-phase, two phases liquid/liquid, two phases solid/liquid, three-phase) at selected points is indicated by symbols.

As to `CN(C)CCCN` [3-(Dimethylamino)-1-propylamine, 3-(dimethylamino)-1-propylamine], the Inhibiting period in data set [1] (additive 1000 ppm) is recorded as 407 min.

`CC(=O)O` [Acetic acid] returned an Inhibiting period in data set [1] (additive 1000 ppm) of 347 min.

For `CC#N` [Acetonitrile], the Ra in data set [2] is 7.8. In data set [3], the δD is 15.3 MPa^1/2, the δP was 18.0 MPa^1/2 and the δH is reported as 6.1 MPa^1/2. In data set [1] (additive 1000 ppm), this compound gave an Inhibiting period of 335 min. For the same compound, in data set [4], the “εr at 20° C.” value was 36.8.

`CCCCC(CC)COC(=O)C(C)O` (centres unmarked) [Agnique AE 3 2 EH, 2-ethylhexyl lactate] came in with an Inhibiting period in data set [1] (additive 1000 ppm) of 279 min.

For `CC(O)C(=O)N(C)C` (centres unmarked) [Agnique AMD 3 L, N,N-dimethyllactamide], the Inhibiting period in data set [1] (additive 1000 ppm) is recorded as 405 min.

`CCCCCCCCO` [Agnique FOH 898, n-octanol] displayed an Inhibiting period in data set [1] (additive 1000 ppm) of 332 min.

The compound `COc1ccc(C(OC)OC)cc1` [Anisacetal, p-(dimethoxymethyl)anisole] gave an Inhibiting period in data set [1] (additive 1000 ppm) of 320 min.

Turning to `N#Cc1ccccc1` [Benzonitrile], in data set [2], the Ra is given as 4.6. Also, in data set [3], the δD is listed as 18.8 MPa^1/2, the δP is given as 12.0 MPa^1/2 and the δH is given as 3.3 MPa^1/2. Also, the Inhibiting period in data set [1] (additive 1000 ppm) was 334 min. Also, the “εr at 20° C.” value in data set [4] is 25.7.

In turn, `OCc1ccccc1` [Benzyl alcohol] registered an Inhibiting period in data set [1] (additive 1000 ppm) of 355 min.

In the case of `CCCCCCCCCC(=O)N(C)C` [C10-fatty acid dimethylamide], in data set [3], the δD is on record as 16.6 MPa^1/2, the δP is listed as 6.7 MPa^1/2 and the δH is reported as 5.7 MPa^1/2. Besides, in data set [1] (additive 1000 ppm), the Inhibiting period was 335 min. For the same compound, the “εr at 20° C.” value in data set [4] was 13.8.

`O=C1CCCCC1` [Cyclohexanone]: in data set [2], the Ra was 3.2. Besides, in data set [3], the δD is listed as 17.8 MPa^1/2, the δP is reported as 8.4 MPa^1/2 and the δH is listed as 5.1 MPa^1/2. In data set [1] (additive 1000 ppm), this compound gave an Inhibiting period of 75 min. Also, the “εr at 20° C.” value in data set [4] was 16.1.

In turn, `O` [DI water, deionized water] displayed an Inhibiting period in data set [1] (additive 1000 ppm) of 327 min.

Regarding `C[S+](C)[O-]` [DMSO], in data set [2], the Ra is given as 7.4. In data set [3], the δD is 18.4 MPa^1/2, the δP is listed as 16.4 MPa^1/2 and the δH was 10.2 MPa^1/2. This compound displayed an Inhibiting period in data set [1] (additive 1000 ppm) of 317 min. Also, in data set [4], the “εr at 20° C.” value is 47.3.

In the case of `C1CCC2CCCCC2C1` (centres unmarked) [Decahydronaphthalene], the Inhibiting period in data set [1] (additive 1000 ppm) was 347 min.

`CCCCC(CC)COC(=O)CCCCC(=O)OCC(CC)CCCC` (centres unmarked) [Di(2-ethylhexyl) adipate]: the Ra in data set [2] is listed as 6.8. For the same compound, in data set [3], the δD is 16.2 MPa^1/2, the δP was 4.6 MPa^1/2 and the δH is 7.7 MPa^1/2. Moreover, the Inhibiting period in data set [1] (additive 1000 ppm) was 350 min. Further, in data set [4], the “εr at 20° C.” value is listed as 2.1.

`CCCCOC(=O)CCCCC(=O)OCCCC` [Dibutyl adipate (Cetiol B), Dibutyl adipate]: the Ra in data set [2] was 6.8. In addition, in data set [3], the δD was 16.4 MPa^1/2, the δP is recorded as 4.3 MPa^1/2 and the δH is 5.9 MPa^1/2. In data set [1] (additive 1000 ppm), this compound gave an Inhibiting period of 347 min. Also, the “εr at 20° C.” value in data set [4] was 3.0.

Take `COC(=O)c1ccccc1C(=O)OC` [Dimethyl phthalate]: the Inhibiting period in data set [1] (additive 1000 ppm) worked out at 348 min.

With `COC(=O)CCC(=O)OC` [Dimethyl succinate], in data set [2], the Ra is 4.7. Also, in data set [3], the δD is recorded as 16.1 MPa^1/2, the δP is 7.7 MPa^1/2 and the δH was 8.8 MPa^1/2. Also, the Inhibiting period in data set [1] (additive 1000 ppm) is listed as 348 min. Also, the “εr at 20° C.” value in data set [4] is listed as 7.3.

In data set [1] (additive 1000 ppm), `CN1CCN(C)C1=O` [Dimethylethyleneurea] displayed an Inhibiting period of 313 min.

Take `COCC(C)OCC(C)OC` (centres unmarked) [Dipropylene glycol dimethyl ether]: the Ra in data set [2] was 7.1. In addition, in data set [3], the δD is 15.5 MPa^1/2, the δP is reported as 4.6 MPa^1/2 and the δH is 6.1 MPa^1/2. In data set [1] (additive 1000 ppm), the Inhibiting period was found to be 339 min. The “εr at 20° C.” value in data set [4] is 10.4.

For `OCCO` [Ethylene glycol], the “relative solubility of phenothiazine in a mixture of ionic liquid and solvent, based on the solubility in the pure solvent” value in data set [5] was “only a small solubility-increasing effect or solubility-reducing effect”. For the same compound, the Inhibiting period in data set [1] (additive 1000 ppm) was determined as 365 min.

For the compound `NCCN` [Ethylenediamine], the Inhibiting period in data set [1] (additive 1000 ppm) stood at 341 min.

On to `COC(=O)c1ccccc1` [Methyl benzoate], for which, in data set [2], the Ra is on record as 4.9. Moreover, in data set [3], the δD is reported as 18.9 MPa^1/2, the δP is given as 8.2 MPa^1/2 and the δH is 4.7 MPa^1/2. The same compound came in with an Inhibiting period in data set [1] (additive 1000 ppm) of 350 min. The “εr at 20° C.” value in data set [4] is 6.7.

On to `CCCCC(C)=O` [Methyl butyl ketone], for which the Ra in data set [2] is reported as 6.3. Moreover, in data set [3], the δD is given as 15.3 MPa^1/2, the δP was 6.1 MPa^1/2 and the δH is listed as 4.1 MPa^1/2. The compound also returned an Inhibiting period in data set [1] (additive 1000 ppm) of 309 min. The “εr at 20° C.” value in data set [4] was 14.5.

For the compound `C1COCCN1` [Morpholine], the Ra in data set [2] was 8.1. Besides, in data set [3], the δD is 18.0 MPa^1/2, the δP is recorded as 4.9 MPa^1/2 and the δH is recorded as 11.0 MPa^1/2. In data set [1] (additive 1000 ppm), the Inhibiting period worked out at 410 min. Also, the “εr at 20° C.” value in data set [4] is reported as 7.8.

On to `Cn1ccnc1` [N-Methylimidazole], for which the Ra in data set [2] is on record as 8.8. Also, in data set [3], the δD was 19.7 MPa^1/2, the δP was 15.6 MPa^1/2 and the δH is 11.2 MPa^1/2. The same compound showed an Inhibiting period in data set [1] (additive 1000 ppm) of 366 min. For the same compound, the “εr at 20° C.” value in data set [4] is listed as 32.0.

Regarding `CN1CCCC1=O` [N-Methylpyrrolidone], the Ra in data set [2] is on record as 8.2. Further, in data set [3], the δD is reported as 16.8 MPa^1/2, the δP was 2.8 MPa^1/2 and the δH is reported as 6.7 MPa^1/2. Also, the Inhibiting period in data set [1] (additive 1000 ppm) was determined as 343 min. Besides, the “εr at 20° C.” value in data set [4] was 32.8.

Regarding `CCC(=O)O` [Propionic acid], in data set [1] (additive 1000 ppm), the Inhibiting period was determined as 337 min.

In data set [1] (additive 1000 ppm), `O=S1(=O)CCCC1` [Sulfolane] yielded an Inhibiting period of 330 min. For the same compound, the “εr at 20° C.” value in data set [4] was 42.7.

`c1ccc2c(c1)Nc1ccccc1S2` [phenothiazine]: in data set [6], the “phase behavior (compatibility of ionic liquid and solvent)” value is “an incompatibility between the ionic liquid and the solvent (formation of two liquid phases) is eliminated by the addition of phenothiazine above a particular concentration”; the “solubility of phenothiazine in the solvent on addition of ionic liquid” value is listed as “even small additions of the ionic liquid increase the solubility of phenothiazine in the solvent, with a linear increase up to the solubility in the pure ionic liquid”. Besides, in data set [7], the “phase behavior (compatibility of ionic liquid and solvent)” value is “an incompatibility between the ionic liquid and the solvent (formation of two liquid phases) is eliminated by the addition of phenothiazine above a particular concentration”; the “solubility of phenothiazine in the solvent on addition of ionic liquid” value is “even small additions of the ionic liquid increase the solubility of phenothiazine in the solvent, with a linear increase or a slight synergistic effect up to solubility in the pure ionic liquid”.

Turning to `O=C1CCCO1` [γ-Butyrolactone], the Ra in data set [2] is 6.1. Also, in data set [3], the δD was 18.0 MPa^1/2, the δP is given as 16.6 MPa^1/2 and the δH is 7.4 MPa^1/2. Further, the Inhibiting period in data set [1] (additive 1000 ppm) is on record as 361 min. Moreover, the “εr at 20° C.” value in data set [4] was 41.4.

With “N-ethyl-N′-methylimidazolium ethylsulfate [EMIM ethylsulfate]”, the Inhibiting period in data set [1] (additive 29 ppm) stood at 386 min.

The compound “N-ethyl-N′-methylimidazolium isononanoate [EMIM isononanoate]” gave an Inhibiting period in data set [1] (additive 1000 ppm) of 379 min.

The compound “tetrabutylammonium [2-(2-methoxyethoxy)ethoxy]acetate [TBA ether carboxylate]” had an Inhibiting period in data set [1] (additive 22 ppm) of 378 min.
